According to patent US5430045A, “Method of reducing or preventing bone marrow hypoplasia” (Free Radical Sciences, Inc., priority 1993, dated 1995):
Values joined by “and” are separate entries in the source; they are usually repeats but may differ in a detail not shown here. Equal values may be shown once.

Experiments:
bone marrow [1] = test: Bone marrow smear differential and M:E ratio, Example 2; type: in vivo, mice
Protocol: (§1) One femur from each mouse was removed and transversely halved. One half was preserved in 10% neutral buffered formalin, then submitted to a histology department for further preparation. The other half of the femur was used to prepare bone marrow smears. […] Prepared slides for bone sections and bone marrow smears were stained (Diff-Quik®) and the smears and sections were evaluated microscopically.
(§2) The difference between the means for groups 3 and 5 and the difference between the means for groups 4 and 6 were compared to the control delta. The significance of the two individual comparisons is designated in the summary statistics listing. Pairwise comparisons of the mean response for group 2 to group 1, group 3 to group 1, group 4 to group 1, group 5 to group 2, and group 6 to group 2 were also performed. The significance of these five comparisons was designated in the summary statistics listing. In total, the significance of seven statistical comparisons (two on the mean differences and five on the mean responses) are indicated in the summary statistics listing.
(§3) Statistical analysis of bone marrow data included an analysis of the results from bone marrow smears (differential count and M:E ratio), analysis of the histopathologic characterization data for bone marrow cellularity, analysis of the bone marrow cellularity on the day of necropsy, analysis of the results of the hematopoietic colony forming assays (based on 10^4 mononuclear bone marrow (cells/dish), and analysis of the number of colony forming units represented per femur (cellularity data multiplied by colony forming data).

[2] = GSH concentrations in blood, liver and kidney by HPLC, Example 2; type: in vivo, mice
bone marrow [3] = test: Nucleated cells/femur and colony forming cells, Example 2; type: in vivo, mice
Protocol: Bone marrow colony-forming cells were evaluated. During necropsy, one femur per mouse was cut at the distal and proximal ends. Using a syringe and 25 G needle, 5 ml of Iscove's Modified Dulbecco's Media (IMDM) was flushed through the femur into a collection tube (2.5 ml flushed into one end, then 2.5 ml into the other end). The tube was washed using IMDM containing 20% fetal bovine serum and the cell concentration was adjusted to the desired count for the colony assay. In triplicate, the marrow cells were put into a mixture of methylcellulose, stem cell factor, interleukin-3, granulocyte macrophage--colony stimulating factor, and erythropoietin, and plated into 35 mm diameter dishes. The dishes were incubated 10 days (37° C., 5% CO2, 100% relative humidity) then manually scored under a light microscope for myeloid (white), erythroid (red), and mixed colonies.
as §3

[4] = Histopathology of adrenal, skin and tail, Example 2; parameters: species or system mice; conditions: mouse, in vivo
bone marrow [5] = test: Nucleated cells per femur (bone marrow cells before plating), Example 1; type: in vivo, mice; conditions: for Nucleated Cells/Femur: M,F,combined in turn
Protocol: (§4) Populations of bone marrow colony forming cells were evaluated. Bone marrow was collected and the stem cell assay conducted, as follows: one femur per mouse was cut at the distal and proximal ends. Using a syringe and 25 gauge needle, 5 mL of IMDM media was flushed through the femur into a collection tube (2.5 mL flushed into one end, then 2.5 ml into the other end). The tube was washed using Iscove's Modified Dulbecco's Media containing 20% fetal bovine serum and the cell concentration was adjusted to the desired count for the colony assay.
(§5) Terminal blood was evaluated for hematological effects, and bone marrow smears and aspirates were counted and 10^4 nucleated cells of the aspirate were cultured 14 days to assess hematopoietic progenitor cells.

bone marrow [6] = test: Bone marrow smear differential, cells/femur and myeloid:erythroid ratio, Example 1; type: in vivo, mice
Protocol: Prepared slides were stained and evaluated microscopically.
Statistical tests were performed at the α level of 0.01. Listing of the individual data and summary statistics (mean, standard error and sample size) was provided. The average body weight changes from study day 3 for study days 4-10 and 11-17 and average food consumption for study days 4-10 and 11-17 was analyzed. […] Specifically, the interaction of AZT and procysteine® was evaluated.
Microscopic analysis of the bone marrow smears was conducted by evaluating 500 cells for the differential analysis and 500 cells for the myeloid: erythroid ratio.

peripheral blood [7] = test system: peripheral blood; parameters: species or system mice; conditions: mouse, in vivo
Protocol: On study day 17, the animals were anesthetized with methoxyflurane (in a bell jar). When deeply anesthetized, blood was obtained by cardiac puncture and transferred for hematological analysis into tubes containing an EDTA suspension.
The following hematologic assays were conducted.
Statistical tests were performed at the α level of 0.01. Listing of the individual data and summary statistics (mean, standard error and sample size) was provided. The average body weight changes from study day 3 for study days 4-10 and 11-17 and average food consumption for study days 4-10 and 11-17 was analyzed.

[8] = test system: bone marrow colony forming cells; test: Hematopoietic progenitor colony forming assay of bone marrow, Example 1; parameters: species or system mice; conditions: mouse, in vivo
Protocol: as §4
In triplicate, the marrow cells were put into a mixture of methylcellulose and plated into 35 mm diameter dishes. The dishes were incubated approximately 2 weeks (37° C., 5% CO2, 100% relative humidity) then manually scored under a microscope for myeloid, erythroid, and mixed colonies.
as §5

femoral bone marrow = test: Histopathology of femoral bone marrow sections, Example 2; type: in vivo, mice
Protocol: (§6) Animals were weighed (not fasted) on study day 59 and euthanized, and specimens were collected as described.
as §1

peripheral blood [9] = test system: peripheral blood; parameters: species or system mice; conditions: mouse, in vivo; remark: listed apart in the source
Protocol: An eight week evaluation of the potential for oral Procysteine® to modulate AZT-induced hematologic toxicity in mice was conducted. As noted above, AZT-related bone marrow toxicity, and resultant bone marrow hypoplasia, limits the utility of this drug.
as §6
On study day 59, surviving mice were deeply anesthetized with methoxyflurane in a bell jar. While the mice were deeply anesthetized, blood for hematological analysis was obtained via cardiac puncture using needles/syringes coated with K3 EDTA. While deeply anesthetized, the mice were then euthanized by exsanguination followed by cervical dislocation. Then, bone marrow smears and aspirates were prepared and liver and kidneys were collected as subsequently described in this report.
The following hematology assays were conducted:
Statistical tests were performed at α≈0.01. Listings of the individual data were provided. Summary statistics by sex (mean, standard error and sample size) were provided for the responses for each group and for the differences between groups 1 and 2, between groups 3 and 5 and between groups 4 and 6. The average across weekly intervals for body weight change from study day 3 was analyzed. The average across weekly intervals for food consumption starting with the interval between days 3-4 were analyzed. The model included factors for block, sex and group effects and the group by sex interaction. the interactions with block effect were assumed negligible. Data for both sexes were included in one model to get an overall estimate of the residual standard deviation used in the statistical comparisons.
as §2

[10] = AZT 50 mg/kg/day, M,F,combined in turn
[11] = AZT 500 mg/kg/day, M,F,combined in turn
[12] = 8 weeks, AZT 50/day, F, M in turn
[13] = 8 weeks, AZT 500/day, F, M in turn
[14] = 8 weeks, no AZT, F (N 9), M (N 10) in turn

Cc1cn([C@H]2C[C@H](N=[N+]=[N-])[C@@H](CO)O2)c(=O)[nH]c1=O [AZT]
erythroid cells in bone marrow smears (bone marrow [1]; male and female): significant reduction | metarubricytes (nonproliferating) and rubriblasts (bone marrow [1]; male and female): significantly reduced | total proliferating myeloid and total myeloid cells (bone marrow [1]; male and female): significantly increased | Blood GSH ([2]; mouse, in vivo): significantly decreased with increasing AZT dose | total number of colonies (bone marrow [3]; both high dose AZT groups): significant increases | Nucleated Cells/Femur (bone marrow [3]; males and females, high dose AZT ± Procysteine, vs controls): significantly decreased | epidermal melanin-like pigment of tail [4]: accumulation of epidermal melanin-like pigment | Nucleated Cells/Femur (bone marrow [5]; AZT 50 mg/kg/day): 11.7 ×10**6 and 9.9 ×10**6 and 10.8 ×10**6 | Nucleated Cells/Femur (bone marrow [5]; AZT 500 mg/kg/day): 10.5 ×10**6 and 8.8 ×10**6 and 9.6 ×10**6 | nucleated cells of bone marrow aspirates (bone marrow [5]; AZT and high-dose AZT/Procysteine, vs controls): significant reduction | Bone Marrow-Miscellaneous Cells % (bone marrow [6]; [10]): 0.4% and 0.5% | Lymphocyte (bone marrow [6]; [10]): 0.047 /Femur × 10**6 and 0.046 /Femur × 10**6 | Bone Marrow-Miscellaneous Cells % (bone marrow [6]; [11]): 0.2% | Lymphocyte (bone marrow [6]; [11]): 0.022 /Femur × 10**6 and 0.015 /Femur × 10**6 and 0.019 /Femur × 10**6 | metarubricytes (nonproliferating) (bone marrow [6]; bone marrow smears): marked reduction | rubriblasts (bone marrow [6]; bone marrow smears): mild reduction | total count of erythroid series cells (bone marrow [6]; bone marrow smears): reduced total count | nonproliferating compartment of the myeloid series (bone marrow [6]; mouse, in vivo): reduction | proliferating compartment of the myeloid series (bone marrow [6]; mouse, in vivo): significantly increased | mean corpuscular volume, mean corpuscular hemoglobin, incidence of polychromasia, anisocytosis, macrocytes and Howell-Jolly bodies (peripheral blood [7]): increases | total hemoglobin concentration, hematocrit and erythrocyte counts (peripheral blood [7]): significant (p<0.01) decreases | total colonies and colony forming units-granulocyte/macrophage [8]: significant induction | Bizarre Mitotic Figures (number of mice) (femoral bone marrow; [12]): 0 | Erythroid Hypoplasia (number of mice) (femoral bone marrow; [12]): 10 and 6 | General Hypoplasia (number of mice) (femoral bone marrow; [12]): 1 | Hemosiderin (number of mice) (femoral bone marrow; [12]): 0 | Erythroid Hypoplasia (number of mice) (femoral bone marrow; [13]): 9 and 8 | Hemosiderin (number of mice) (femoral bone marrow; [13]): 4 and 2 | erythroid or general bone-marrow-hypoplasia (femoral bone marrow; both doses, both sexes): 36/39 | erythroid hypoplasia (femoral bone marrow; female mice): 19/20 | erythroid hypoplasia (femoral bone marrow; male mice): 14/19 | HCT (peripheral blood [9]): significant decrease | MCV and MCH (peripheral blood [9]): Significant increases | RBC and HGB (peripheral blood [9]): Significant decreases | platelets (peripheral blood [9]): significant increases

O=C1N[C@H](C(=O)O)CS1 [Procysteine]
erythroid series cells (bone marrow [1]; female mice): only a mild decrease | myeloid series cells (bone marrow [1]; female mice): no meaningful alterations | bone marrow status (bone marrow [1]; male mice): normal bone marrows | blood GSH concentrations vs AZT-only treated groups ([2]; at 0, 50, and 500 mg/kg/day AZT): higher | Nucleated Cells/Femur (bone marrow [5]; no AZT): 12.8 ×10**6 and 12.0 ×10**6 and 12.4 ×10**6 | Bone Marrow-Miscellaneous Cells % (bone marrow [6]; no AZT, M,F,combined in turn): 1.0% and 1.2% and 1.1% | Lymphocyte (bone marrow [6]; no AZT, M,F,combined in turn): 0.130 /Femur × 10**6 and 0.141 /Femur × 10**6 and 0.135 /Femur × 10**6 | Myeloid:Erythroid Ratio (bone marrow [6]; no AZT, M,F,combined in turn): 1.59 and 1.58 | Bizarre Mitotic Figures (number of mice) (femoral bone marrow; [14]): 0 | Erythroid Hypoplasia (number of mice) (femoral bone marrow; [14]): 0 | General Hypoplasia (number of mice) (femoral bone marrow; [14]): 0 | Hemosiderin (number of mice) (femoral bone marrow; [14]): 0 | Normal bone marrow (number of mice) (femoral bone marrow; [14]): 9 and 10 | AZT-induced bone marrow pathology / hypoplasia (femoral bone marrow; eight weeks of cotreatment): significantly ameliorated | HCT (peripheral blood [9]): 39.6% | MCV (peripheral blood [9]): 51 fL | Retic (peripheral blood [9]): 1.4% | WBC (peripheral blood [9]): 2.1 10^3 /μl
